Where “and” joins values, the source holds several entries; their conditions need not be identical. Equal entries are not always repeated. Where two headings read alike, the source gives them in different places. Blank lines part the entries; values can stand above or below the compound they belong to. Bridge positions count the residues as written; N and C are the ends. Ends that are not written are not given here.
How the values were obtained:
S. aureus ATCC 43300 [1] = experiment: microbe, parasite or virus in culture; assay type: cell-based, Staphylococcus aureus; conditions: S. aureus ATCC 43300; for MIC: Staphylococcus aureus, ATCC43300, read-out: MICa (MIC of drug alone)
Experimental: The effects of combination were evaluated by calculating the FICI. FICI ≤ 0.5 was defined as synergy, 0.5 < FICI ≤ 1 was defined as additivity, 1 < FICI ≤ 4 was defined as indifference, and FICI > 4 was defined as antagonism.

S. aureus CVCC 546 = experiment: microbe, parasite or virus in culture; assay type: cell-based, Staphylococcus aureus; conditions: S. aureus CVCC 546, CLSI procedure, triplicate, read-out: MIC
Experimental: (§1) The minimal inhibitory concentrations (MICs) assay was performed according to the CLSI procedures with the final peptide concentrations of 256, 128, 64, 32, 16, 8, 4, 2, 1, and 0.5 μg/mL, respectively. All tests were conducted in triplicate.

S. aureus E48 = experiment: microbe, parasite or virus in culture; assay type: cell-based, Staphylococcus aureus; conditions: S. aureus E48, CLSI procedure, triplicate, read-out: MIC
Experimental: as §1

S. aureus ATCC 25923 = experiment: microbe, parasite or virus in culture; assay type: cell-based, Staphylococcus aureus; conditions: S. aureus ATCC 25923, CLSI procedure, triplicate, read-out: MIC
Experimental: as §1

[2] = test system: S. epidermidis ATCC 12228; experiment: microbe, parasite or virus in culture; assay type: cell-based, Staphylococcus epidermidis; conditions: S. epidermidis ATCC 12228, CLSI procedure, triplicate, read-out: MIC
Experimental: as §1

[3] = test system: Staphylococcus aureus ATCC 43300; experiment: microbe, parasite or virus in culture; assay type: cell-based; conditions: S. aureus ATCC 43300, CLSI procedure, triplicate, read-out: MIC
Experimental: as §1

[4] = test system: Escherichia coli ATCC 25922; experiment: microbe, parasite or virus in culture; assay type: cell-based; conditions: Escherichia coli ATCC 25922, CLSI procedure, triplicate, read-out: MIC
Experimental: as §1

S. aureus ATCC 43300 [5] = experiment: Bactericidal kinetics (time-killing curves); assay type: cell-based, Staphylococcus aureus; conditions: FNZ 1×, 2×, 4× MIC; ampicillin 2× MIC; S. aureus ATCC 43300
Experimental: The S. aureus ATCC 43300 in logarithmic growth stage was diluted to a final concentration of 10^6 CFU/mL. […] Samples were taken at 0, 0.5, 1, 2, 4, 6, 8, 10, 20, and 24 h, serially diluted, and visible colonies were counted on MHA plates.

[6] = test system: G+ bacteria (S. aureus, S. hyicus, S. agalactiae, S. epidermidis); experiment: MIC, summary over Gram-positive bacteria; assay type: cell-based; conditions: range over S. aureus
Experimental: as §1

RAW264.7 cells = experiment: Cytotoxicity, MTT assay; assay type: cell-based, mouse; conditions: at 128 μg/mL, n = 3
Source text: The MTT assay was used to test the cytotoxicity of FNZ to the RAW 264.7 cells.

S. aureus ATCC 43300 [7] = experiment: Stability in simulated gastric fluid (MIC after treatment); assay type: in vitro ADME, Staphylococcus aureus; conditions: 1 h, MIC vs S. aureus ATCC 43300, triplicate
Experimental: (§2) The tolerance of FNZ to temperature and pH was evaluated. The stability of FNZ in simulated gastric fluid, artificial intestinal fluid and mouse serum was carried out as previously described. […] All assays were conducted in triplicate.

S. aureus ATCC 43300 [8] = experiment: Stability in mouse serum (MIC after treatment); assay type: in vitro ADME, Staphylococcus aureus; conditions: mouse serum (25%), 1–4 h
Experimental: as §2

[9] = test system: Gram-negative bacteria (E. coli, S. enterica, P. aeruginosa); experiment: MIC, summary over Gram-negative bacteria; assay type: cell-based
Experimental: as §1

S. aureus ATCC 43300 [10] = experiment: pH stability (MIC after pH treatment); assay type: physicochemical, Staphylococcus aureus; conditions: MIC vs S. aureus ATCC 43300, triplicate
Experimental: as §2

S. aureus ATCC 43300 [11] = experiment: Salts stability (MIC after incubation with Na+ or Mg2+); assay type: cell-based, Staphylococcus aureus; conditions: 37 °C, 1 h, MIC vs S. aureus ATCC 43300, triplicate, read-out: MIC after treatment
S. aureus ATCC 43300 [12] = experiment: Thermal stability (MIC after heat treatment); assay type: physicochemical, Staphylococcus aureus; conditions: MIC vs S. aureus ATCC 43300, triplicate
Experimental: as §2

[13] = test system: Salmonella enterica ATCC 13076; experiment: Minimal inhibitory concentration (MIC); assay type: cell-based; conditions: CLSI procedure, triplicate
Experimental: as §1

[14] = test system: Pseudomonas aeruginosa CICC 20625; experiment: Minimal inhibitory concentration (MIC); assay type: cell-based; conditions: CLSI procedure, triplicate
Experimental: as §1

- MIC (S. aureus ATCC 43300 [1]; checkerboard, 37 °C, 16 h): 0.25 µg/mL
- MICc (MIC of drug used in combination) (S. aureus ATCC 43300 [1]; combination FNZ + Cip, checkerboard, 37 °C, 16 h): 0.375 µg/mL
Compound: O=C(O)c1cn(C2CC2)c2cc(N3CCNCC3)c(F)cc2c1=O [Cip, ciprofloxacin]

- MIC (S. aureus CVCC 546; Staphylococcus aureus, CVCC546): 0.25 µg/mL and 0.62 µM
- MIC (S. aureus E48; Staphylococcus aureus): 0.25 µg/mL and 0.62 µM
- MIC (S. aureus ATCC 25923; Staphylococcus aureus, ATCC25923): 0.25 µg/mL and 0.62 µM
- MIC ([2]; Staphylococcus epidermidis, ATCC12228): 2 µg/mL and 2.48 µM
- MIC ([3]; Staphylococcus aureus, ATCC43300): 2 µg/mL and 2.48 µM
- MIC ([4]; ATCC25922): 1 µg/mL and 1.24 µM
- MIC (S. aureus ATCC 43300 [1]; checkerboard, 37 °C, 16 h): 2 µg/mL
Compound: CC1(C)S[C@@H]2[C@H](NC(=O)[C@H](N)c3ccccc3)C(=O)N2[C@H]1C(=O)O [Ampicillin, ampicillin]
- Combination effect with FNZ (in words) (S. aureus ATCC 43300 [1]; checkerboard): synergistic effect
- FIC (S. aureus ATCC 43300 [1]; combination FNZ + Amp): 0.063
- Regrowth (rebound of colonies) up to 24 h (S. aureus ATCC 43300 [5]): rebound situation was observed

Compound: FGFGCNGPWNEDDLRCHNHCKSIKGYKGGYCAKGGFVCKCY (disulfide 5-31, 16-38, 20-40) [FNZ]
- MIC (S. aureus CVCC 546): 1.75 µM
- MIC (S. aureus E48): 0.88 µM
- MIC (S. aureus ATCC 25923): 1.75 µM
- MICs, G+ bacteria [6]: 4 to 8 µg/mL
- Cell viability (survival) (RAW264.7 cells): 88.56%
- MIC [2]: 1.75 µM
- MIC after treatment (S. aureus ATCC 43300 [7]): 8 μg/mL and 1.75 μM
- MIC [3]: 1.75 µM
- MIC [4]: >28.05 µM
- Serum stability (in words) (S. aureus ATCC 43300 [8]; MIC read-out): Stable^a
- MIC after treatment (S. aureus ATCC 43300 [8]; MIC vs S. aureus ATCC 43300, triplicate): 8 μg/mL and 1.75 μM
- MICs, Gram-negative bacteria [9]: > 128 µg/mL
- FIC (S. aureus ATCC 43300 [1]; combination FNZ + Amp): 0.016
- FIC (S. aureus ATCC 43300 [1]; combination FNZ + Cip): 0.031
- FIC (S. aureus ATCC 43300 [1]; combination FNZ + Kan): 0.063
- FIC (S. aureus ATCC 43300 [1]; combination FNZ + Van): 0.125
- MIC after treatment (S. aureus ATCC 43300 [10]; pH 2): 1.75 µM
- MIC after treatment (S. aureus ATCC 43300 [10]; pH 4): 1.75 µM
- MIC after treatment (S. aureus ATCC 43300 [10]; pH 6): 1.75 µM
- MIC after treatment (S. aureus ATCC 43300 [10]; pH 8): 1.75 µM
- MIC after treatment (S. aureus ATCC 43300 [10]; pH 10): 3.5 µM
- MIC (S. aureus ATCC 43300 [11]; 50 mM Mg2+): 1.75 µM
- MIC (S. aureus ATCC 43300 [11]; 50 mM Na+): 1.75 µM
- MIC (S. aureus ATCC 43300 [11]; 100 mM Mg2+): 1.75 µM
- MIC (S. aureus ATCC 43300 [11]; 100 mM Na+): 1.75 µM
- MIC (S. aureus ATCC 43300 [11]; 150 mM Mg2+): 1.75 µM
- MIC (S. aureus ATCC 43300 [11]; 150 mM Na+): 1.75 µM
- MIC (S. aureus ATCC 43300 [11]; 300 mM Mg2+): 3.5 µM
- MIC (S. aureus ATCC 43300 [11]; 300 mM Na+): 1.75 µM
- MIC (S. aureus ATCC 43300 [11]; 500 mM Mg2+): >7 µM
- MIC (S. aureus ATCC 43300 [11]; 500 mM Na+): 3.5 µM
- MIC after treatment (S. aureus ATCC 43300 [12]; 20 °C for 1 h): 1.75 µM
- MIC after treatment (S. aureus ATCC 43300 [12]; 40 °C for 1 h): 1.75 µM
- MIC after treatment (S. aureus ATCC 43300 [12]; 60 °C for 1 h): 1.75 µM
- MIC after treatment (S. aureus ATCC 43300 [12]; 80 °C for 1 h): 1.75 µM
- MIC after treatment (S. aureus ATCC 43300 [12]; 100 °C for 1 h): 3.5 µM
- MIC [13]: >28.05 µM
- MIC [14]: >28.05 µM

- MICa (MIC of drug alone) (S. aureus ATCC 43300 [1]; checkerboard, 37 °C, 16 h): 64 µg/mL
- MICc (MIC of drug used in combination) (S. aureus ATCC 43300 [1]; combination FNZ + Kan, checkerboard, 37 °C, 16 h): 0.5 µg/mL
Compound: NC[C@H]1O[C@H](O[C@H]2[C@H](O)[C@@H](O[C@H]3O[C@H](CO)[C@@H](O)[C@H](N)[C@H]3O)[C@H](N)C[C@@H]2N)[C@H](O)[C@@H](O)[C@@H]1O [Kan, kanamycin]
- Combination effect with FNZ (in words) (S. aureus ATCC 43300 [1]; checkerboard): synergistic effect
- FIC (S. aureus ATCC 43300 [1]; combination FNZ + Kan): 0.008

Reference: publication PMC10135057, “Molecular Modification of Kex2 P1’ Site Enhances Expression and Druggability of Fungal Defensin” (Antibiotics, 2023)
